The values below come from patent US20050014144A1, “Methods” (priority 2001, published 2005).

One series has as its system Pythium aphanidermatum. Description: Azoxystrobin sensitivity of P. aphanidermatum isolates on treated perennial ryegrass turf (percent infected turf area). The series is classed as in vivo. As for the experimental part:
To enable an assessment of axoxystrobin (strobilurin) resistance of the above isolates, perennial ryegrass (Lolium perenne L.) was grown in 4×4 inch square plastic pots containing sandy soil. Agsorb absorbent clay (extra fine red) was used to anchor the seeds and provide a high level of moisture around the seed to aid germination. The pots were watered using a fog nozzle and covered with paper to reduce evaporation. A fog nozzle was used 3-5 times a day to water the turf pots. When seedlings emerged, the paper cover was removed from the pots to prevent etiolation and watering was reduced to twice daily using a fan nozzle. The pots were maintained for 12-16 days in a glass-house (17-32° C.; 14 h photoperiod) prior to treatment. During this time, the turf was cut twice with electric Black and Decker hand-held clippers.
Pythium aphanidermatum cultures of the isolates summarized in FIG. 1 were maintained on potato dextrose agar (PDA) amended with streptomycin sulfate at 0.05 g/L. Organically grown rye grains (50 g) were hydrated overnight with 40 ml deionized water placed in 250 ml plastic (polyvinyl-chloride) flasks. The flasks were autoclaved twice on successive days for 45 minutes each time. After the berries cooled, ten 1×1 cm agar plugs of P. aphanidermatum were added to each flask. Flasks containing infected rye-berries were incubated in a growth chamber (26° C.; 14 h photoperiod) for seven days to allow the fungi to colonize the rye grains. The fungal-colonized rye grains were then used to inoculate the turf; by placing four berries on the center surface of each pot.
Azoxystrobin treatments were applied in an automated spray cabinet using a flat fan nozzle (8004E) positioned 18 inches over the turf with a spray volume of 3 US gal/1000 sq.ft. To prevent carry over from treatment to treatment, applications were made starting with the lowest concentration and ending with the highest concentration. The spray nozzle was washed once with acetone and twice with deionized water (100 ml/rinse) between treatments. Turf was sprayed with Heritage® (azoxystrobin) at rates of 0.4, 0.133, 0.044, 0.015, 0.005 and 0 oz.Heritage/1000 sq.ft. Following application, the turf was allowed to dry and was transferred to a growth chamber (25-28° C.; 14 h photoperiod) overnight.
Turf was inoculated with fungal-colonized rye-berries one day after application as previously described. All treatments were then randomized and placed in a dew chamber (25-28° C.; 14 h photoperiod) for four days. The turf was moved to a growth room 24 h prior to disease assessment. The percent of Pythium-infected turf area in each pot was assessed five days after inoculation With the exception of isolate 99-150, all the isolates of P. aphanidermatum were sensitive to azoxystrobin (Table1). […] This is the first report of resistance to azoxystrobin of an isolate of the plant pathogenic fungus P. aphanidermatum.
The sensitivity of the resistant isolate 99-150 and sensitive isolate P32R was then confirmed by testing in two separate experiments using rates up to nine times higher than the recommended commercial rate of Heritage® (azoxystrobin): 3.6, 1.2, 0.4, 0.133, 0.044, 0.015, 0.005 and 0 oz/1000 sq.ft.

The next series concerns Plasmopara viticola. The series can be described thus: in planta dose response bioassay with azoxystrobin on vine seedlings (EC50, EC95). To be noted: for EC95: vine seedlings, azoxystrobin rates in ppm (Table 31). The class given is in vivo. As for the experimental part: The in planta dose response bioassay was performed on 10 to 14 days old vine seedlings grown in 1.5″ pots. Six rates of azoxystrobin were chosen from preparatory tests, as the most suitable for showing any shifts in sensitivity to azoxystrobin in the dose response bioassay (Table 31).
The azoxystrobin preparation used for all the tests was P53, a technical grade powder with a purity of >97% azoxystrobin. This was kept consistent across all the tests to eliminate any variation caused by differences in chemical purity or physical state. Five seedlings were used per azoxystrobin rate per sample, and 10 seedlings were used for the no azoxystrobin control (sprayed with de-ionised water only).
The chemical was sprayed, with a Devilbiss spray gun at 10 psi, to maximum retention onto the adaxial surface of the 2nd true leaf (test leaf) of each seedling, with care being taken to continuously swirl the solution in the spray gun to prevent local fluctuations in azoxystrobin concentration: The seedlings were then carefully placed in a growth room (Day: 24° C., 60% RH, 4-5000 lux; Night: 17° C., 95% RH; Day length: 16 hours) for 24 hours.
After this time each test leaf was inoculated with the samples I112 and I116b. Both samples had passed through 1 cycle of subculture on 3″ vines since being removed from low temperature storage (FIG. 14). The inoculum from each sample, obtained from the 3″ vines, was diluted to 5,000 sporangia per ml using a dry haemocytometer (Improved Neubayer, depth 0.1 mm, 1/400 mm^2, Hawksley Crystallite, BS 748).
The samples were inoculated, with a Devilbiss spray gun at 10 psi, to maximum retention onto the abaxial surface of the test leaf of each seedling, with the suspension being swirled frequently in the spray gun to keep sporangia from accumulating at the bottom. The test seedlings were incubated in an ambient room for twenty-four hours. The seedlings were then randomised and placed in a growth room (Day: 24° C., 60% RH, 4-5000 lux; Night: 17° C., 95% RH; Day length: 16 hours) for 6 days, before being returned to the ambient room for a further 24 hours to stimulate sporulation.
The seedlings were assessed directly after their removal from the ambient room for the second time. Disease assessment was based on the percentage area of the leaf covered by sporulating lesions and discolouration, and recorded in 5% increments. […] The data was then analysed using the statistical program AGSTAT.

Series [1] concerns P. viticola cytochrome b gene F129 and L129 alleles. The series can be described thus: ARMS/Scorpion F129L SNP detection assay (Ct of allele selective primers on plasmid DNA templates). Details: species or system Plasmopara viticola. As to the method:
In all ARMS/Scorpion F129L SNP detection assays AmpliTaq Gold enzyme (Applied Biosystems) is included in the reaction mixes at 1 unit/25 ul reaction. The reaction mix also contains 1× buffer (10 mM Tris-HCl (pH8.3), 50 mM KCl, 3.5 mM MgCl2, 0.01% gelatine) and 100 uM dNTP's (Amersham Pharmacia Biotech). Amplifications are performed in an ABI 7700 instrument for continuous fluorescence monitoring. The cycling conditions comprise a preliminary cycle of 95° C. for 10 minutes, followed by 50 cycles of 95° C. for 15 seconds and 60° C. for 45 seconds. Fluorescence is monitored during the annealing/extension stage throughout all cycles.
The ARMS primers are validated for use in such analyses by using plasmid DNA, at various concentrations as template. This is performed in order to check the specificity and sensitivity of the primer designs. Partial wild type cytochrome b gene sequence and the corresponding tract containing the F129L mutation amplified from two P. viticola samples has been cloned into the TA pCR2.1 vector (Invitrogen) as described previously in example 11. 150 ul of the bacterial culture, from the 10 transformants from each cloning event picked for Qiagen Biorobot plasmid DNA Preparations (Qiazen) (see example 11), was saved prior to carrying out these preparations and stored at 4° C. Following sequence analysis wild type and mutant plasmid DNA samples that contained no sequence differences from the consensus sequence were noted. The bacterial culture from which these wild type and mutant plasmid DNA sequences originated was picked for plasmid DNA maxipreps (Qiagen) following the manufacturers protocol. The resulting plasmid DNA was quantified and diluted to a concentration of 1 ug/ul (2×10^11 molecules/ul) using sterile double distilled H2O.
The wild type and mutant cyt b plasmid DNA constructs were diluted further to a concentration of 10 pg/ul (or 2×10^6 molecules/ul) in double distilled H2O and used as template to validate the specificity of the ARMS primers. […]

For `CO/C=C(/C(=O)OC)c1ccccc1Oc1cc(Oc2ccccc2C#N)ncn1` [azoxystrobin], the “sensitivity of isolate to azoxystrobin (percent of Pythium-infected turf area)” value in the series with Pythium aphanidermatum (P. aphanidermatum isolate 99-150, Heritage 0.005-0.4 oz/1000 sq.ft on turf, assessed five days after inoculation) was “resistant”. Besides, in the series on Pythium aphanidermatum (all P. aphanidermatum isolates except 99-150, Heritage 0.005-0.4 oz/1000 sq.ft on turf, assessed five days after inoculation), the “sensitivity of isolates to azoxystrobin (percent of Pythium-infected turf area)” value is given as “sensitive”. For the same compound, the “response of isolate to azoxystrobin (percentage of infected turf)” value in the series on Pythium aphanidermatum (resistant isolate 99-150, rates up to nine times the recommended commercial rate of Heritage (3.6 oz/1000 sq.ft)) is recorded as “did not respond”. Further, the “ED80 values of the sensitive isolates” value in the series with Pythium aphanidermatum (sensitive P. aphanidermatum isolates, compared with the established baseline distribution) is given as “within the range of ED80 values of the baseline distribution”. In the series on Pythium aphanidermatum (sensitive isolate P32R, highest rate of Heritage (3.6 oz/1000 sq.ft)), the “percentage of infected turf” value is given as “reduced dramatically”. For the same compound, the EC95 in the series on Plasmopara viticola (P. viticola K2075 (sensitive baseline isolate)) was found to be 0.51; in the series with Plasmopara viticola (P. viticola isolate 00I112) it was 11.75; in the series on Plasmopara viticola (P. viticola isolate 00I116B), 2.84. In addition, the “sensitivity to azoxystrobin in the in planta dose response bioassay” value with Plasmopara viticola (P. viticola sample I112, compared with the sensitive baseline isolate) is recorded as “reduced sensitivity”; in the series with Plasmopara viticola (P. viticola sample I116B, compared with the sensitive baseline isolate), “reduced sensitivity”.
Take “Pv129S (DNA GTCCCCAAGGCAAAACATAACCCAT; chemistry not given here)”: the “Mut Ct” value in series [1] (mutant (L129) plasmid template, 2×10^6 molecules/ul) was 17.22. Besides, the NTC amplification result in series [1] (no template (water only) control) is “None”. In series [1] (wild type (F129) plasmid template, 2×10^6 molecules/ul), the “Wt Ct” value is recorded as 17.0.
